Experimental data as given in patent publication US20260022142A1, “MACROCYCLIC IMMUNOMODULATORS” (Bristol-Myers Squibb Company, priority 2022, published 2026).
Numbered stars: 1 amine (or outer) side, 2 acyl side, 3 side chain; on linkers, the order of the positions; unused ones are H or OH. Bridge positions count the residues as written; N and C are the ends. Square brackets hold non-standard residues; d marks the D form. Peptide text beside a SMILES is read from it. * marks the point of attachment. Phe(4-COOH) = N[C@@H](Cc1ccc(C(=O)O)cc1)C(=O)O; Bip = N[C@@H](Cc1ccc(-c2ccccc2)cc1)C(=O)O; NH(CH2)14COOH = O=C(O)CCCCCCCCCCCCCCN*; Phe(3-Me) = Cc1cccc(C[C@H](N)C(=O)O)c1; γGlu = O=C(O)[C@H](CCC(=O)[*:2])N[*:1]; NH(CH2)12COOH = O=C(O)CCCCCCCCCCCCN*; Val(3-OH) = CC(C)(O)[C@H](N)C(=O)O; 4Pal = N[C@@H](Cc1ccncc1)C(=O)O; Cha = N[C@@H](CC1CCCCC1)C(=O)O; Cit = NC(=O)NCCC[C@H](N)C(=O)O; Carboxymethyl = O=C(O)C*; Orn = NCCC[C@H](N)C(=O)O; Aun = NCCCCCCCCCCC(=O)O; Dab = NCC[C@H](N)C(=O)O; Dap = NC[C@H](N)C(=O)O; AEEA = NCCOCCOCC(=O)O; Propargyl = C#CC*

Target: T1, PD-1/PD-L1 interaction (PE-labeled human PD-L1-Ig binding to Jurkat cell line over-expressing human PD-1) (Homo sapiens, UniProt Q15116)
T1 construct: expressed in transfected cells; host or cells: Jurkat
Assay: Jurkat-PD-1 Cell Binding High-Content Screening Assay (CBA)
Type: cell-based
Details: Jurkat cell line over-expressing human PD-1; PE-labeled PD-L1-Ig 20 nM final; read-out: Jurkat hPD1-PDL1 IC50
Method in brief: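 First, compound is added to PD-1-expressing Jurkat cells in serum-containing DMEM and left 2 h at 37° C. Next, PE-conjugated PD-L1-Ig is introduced at 20 nM final concentration for 1 hour. Finally, cells are fixed in 4% paraformaldehyde with Hoechst 33342, washed and imaged.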

T1 sequence (Q15116 25-288): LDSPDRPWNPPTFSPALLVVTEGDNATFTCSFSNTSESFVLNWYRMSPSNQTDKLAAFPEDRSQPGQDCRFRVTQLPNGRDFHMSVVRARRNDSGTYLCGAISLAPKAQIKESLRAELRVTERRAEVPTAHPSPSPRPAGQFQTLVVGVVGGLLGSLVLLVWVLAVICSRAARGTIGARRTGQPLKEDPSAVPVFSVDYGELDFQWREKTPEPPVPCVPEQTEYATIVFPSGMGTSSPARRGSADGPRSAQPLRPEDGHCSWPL

Row | Structure (SMILES) | IC50 [nM]
1 | Cc1cccc(C[C@@H]2NC(=O)[C@H](CC(=O)O)NC(=O)[C@H](Cc3ccc(OCC(=O)O)cc3)NC(=O)[C@H](CN)NC(=O)CSC[C@@H](C(=O)N[C@@H](CCN)C(=O)NCCCCCCCCCCC(=O)O)NC(=O)[C@H](CCC(N)=O)NC(=O)[C@H](C(C)C)NC(=O)[C@H](CC3CCCCC3)NC(=O)[C@H](CCN)NC(=O)[C@@H](CC(C)C)NC(=O)[C@H](CCCN)NC(=O)[C@H](CCCNC(N)=O)NC(=O)[C@H](Cc3ccc(-c4ccccc4)cc3)NC(=O)[C@H](C(C)C)NC2=O)c1 [Compound 1244] ({CH2CO}-[Dap]Y(Carboxymethyl)D[Phe(3-Me)]V[Bip][Cit][Orn][dL][Dab][Cha]VQC[Dab][Aun]-OH; thioether N-14) | 16.2
2 | Cc1cccc(C[C@@H]2NC(=O)[C@H](CC(=O)O)NC(=O)[C@H](Cc3ccc(OCC(=O)O)cc3)NC(=O)[C@H](CN)NC(=O)CSC[C@@H](C(=O)N[C@@H](CCN)C(=O)NCCCCCCCCCCC(=O)O)NC(=O)[C@H](CCC(=O)O)NC(=O)[C@H](C(C)C)NC(=O)[C@H](CC3CCCCC3)NC(=O)[C@H](CCN)NC(=O)[C@@H](CC(C)C)NC(=O)[C@H](CCCN)NC(=O)[C@H](Cc3ccc(OCC(=O)O)cc3)NC(=O)[C@H](Cc3ccc(-c4ccccc4)cc3)NC(=O)[C@H](Cc3ccc(OCC(=O)O)cc3)NC2=O)c1 [Compound 1245] ({CH2CO}-[Dap]Y(Carboxymethyl)D[Phe(3-Me)]Y(Carboxymethyl)[Bip]Y(Carboxymethyl)[Orn][dL][Dab][Cha]VEC[Dab][Aun]-OH; thioether N-14) | 35.1
3 | Cc1cccc(C[C@@H]2NC(=O)[C@H](CC(=O)O)NC(=O)[C@H](Cc3ccc(OCC(=O)O)cc3)NC(=O)[C@H](CN)NC(=O)CSC[C@@H](C(=O)N[C@@H](CCN)C(=O)NCCCCCCCCCCC(=O)O)NC(=O)[C@H](CCC(N)=O)NC(=O)[C@H](C(C)C)NC(=O)[C@H](CC3CCCCC3)NC(=O)[C@H](CCN)NC(=O)[C@@H](CC(C)C)NC(=O)[C@H](CCCN)NC(=O)[C@H](Cc3ccc(OCC(=O)O)cc3)NC(=O)[C@H](Cc3ccc(-c4ccccc4)cc3)NC(=O)[C@H](Cc3ccc(OCC(=O)O)cc3)NC2=O)c1 [Compound 1247] ({CH2CO}-[Dap]Y(Carboxymethyl)D[Phe(3-Me)]Y(Carboxymethyl)[Bip]Y(Carboxymethyl)[Orn][dL][Dab][Cha]VQC[Dab][Aun]-OH; thioether N-14) | 17.6
4 | C#CCOc1ccc(C[C@@H]2NC(=O)[C@H](C(C)C)NC(=O)[C@H](CC3CCCCC3)NC(=O)[C@H](CCN)NC(=O)[C@@H](CC(C)C)NC(=O)[C@H](CCCN)NC(=O)[C@H](Cc3ccc(OCC(=O)O)cc3)NC(=O)[C@H](Cc3ccc(-c4ccccc4)cc3)NC(=O)[C@H](Cc3ccc(OCC(=O)O)cc3)NC(=O)[C@H](Cc3cccc(C)c3)NC(=O)[C@H](CC(=O)O)NC(=O)[C@H](Cc3ccc(OCC(=O)O)cc3)NC(=O)[C@H](CN)NC(=O)CSC[C@@H](C(=O)N[C@@H](CCN)C(=O)NCCCCCCCCCCC(=O)O)NC2=O)cc1 [Compound 1248] ({CH2CO}-[Dap]Y(Carboxymethyl)D[Phe(3-Me)]Y(Carboxymethyl)[Bip]Y(Carboxymethyl)[Orn][dL][Dab][Cha]VY(Propargyl)C[Dab][Aun]-OH; thioether N-14) | 367
5 | C#CCOc1ccc(C[C@@H]2NC(=O)[C@H](C(C)C)NC(=O)[C@H](CC3CCCCC3)NC(=O)[C@H](CCN)NC(=O)[C@@H](CC(C)C)NC(=O)[C@H](CCCN)NC(=O)[C@H](Cc3ccc(OCC(=O)O)cc3)NC(=O)[C@H](Cc3ccc(-c4ccccc4)cc3)NC(=O)[C@H](Cc3ccc(OCC(=O)O)cc3)NC(=O)[C@H](Cc3cccc(C)c3)NC(=O)[C@H](CC(=O)O)NC(=O)[C@H](Cc3ccncc3)NC(=O)[C@H](Cc3ccc(OCC(=O)O)cc3)NC(=O)CSC[C@@H](C(=O)N[C@@H](CCN)C(=O)NCCCCCCCCCCC(=O)O)NC2=O)cc1 [Compound 1249] ({CH2CO}-Y(Carboxymethyl)[4Pal]D[Phe(3-Me)]Y(Carboxymethyl)[Bip]Y(Carboxymethyl)[Orn][dL][Dab][Cha]VY(Propargyl)C[Dab][Aun]-OH; thioether N-14) | 81.7
6 | C#CCOC[C@@H]1NC(=O)[C@H](C(C)C)NC(=O)[C@H](CC2CCCCC2)NC(=O)[C@H](CCN)NC(=O)[C@@H](CC(C)C)NC(=O)[C@H](CCCN)NC(=O)[C@H](Cc2ccc(OCC(=O)O)cc2)NC(=O)[C@H](Cc2ccc(-c3ccccc3)cc2)NC(=O)[C@H](Cc2ccc(OCC(=O)O)cc2)NC(=O)[C@H](Cc2cccc(C)c2)NC(=O)[C@H](CC(=O)O)NC(=O)[C@H](Cc2ccncc2)NC(=O)[C@H](Cc2ccc(OCC(=O)O)cc2)NC(=O)CSC[C@@H](C(=O)N[C@@H](CCN)C(=O)NCCCCCCCCCCC(=O)O)NC1=O [Compound 1250] ({CH2CO}-Y(Carboxymethyl)[4Pal]D[Phe(3-Me)]Y(Carboxymethyl)[Bip]Y(Carboxymethyl)[Orn][dL][Dab][Cha]VS(Propargyl)C[Dab][Aun]-OH; thioether N-14) | 40.4
7 | C#CCOc1ccc(C[C@@H]2NC(=O)[C@H](C(C)C)NC(=O)[C@H](CC3CCCCC3)NC(=O)[C@H](CCN)NC(=O)[C@@H](CC(C)C)NC(=O)[C@H](CCCN)NC(=O)[C@H](Cc3ccc(OCC(=O)O)cc3)NC(=O)[C@H](Cc3ccc(-c4ccccc4)cc3)NC(=O)[C@H](Cc3ccc(OCC(=O)O)cc3)NC(=O)[C@H](Cc3cccc(C)c3)NC(=O)[C@H](CC(=O)O)NC(=O)[C@H](Cc3ccc(OCC(=O)O)cc3)NC(=O)[C@H](CN)NC(=O)CSC[C@@H](C(=O)N[C@@H](CCN)C(=O)NCCOCCOCC(=O)NCCCCCCCCCCC(=O)O)NC2=O)cc1 [Compound 1251] ({CH2CO}-[Dap]Y(Carboxymethyl)D[Phe(3-Me)]Y(Carboxymethyl)[Bip]Y(Carboxymethyl)[Orn][dL][Dab][Cha]VY(Propargyl)C[Dab][AEEA][Aun]-OH; thioether N-14) | 38
8 | Cc1cccc(C[C@@H]2NC(=O)[C@H](CC(=O)O)NC(=O)[C@H](Cc3ccc(OCC(=O)O)cc3)NC(=O)[C@H](CCN)NC(=O)CSC[C@@H](C(=O)N[C@@H](CCN)C(=O)NCCOCCOCC(=O)NCCOCCOCC(=O)N[C@@H](CC(=O)NCCCCCCCCCCCCCCC(=O)O)C(=O)O)NC(=O)[C@H](Cc3c[nH]cn3)NC(=O)[C@H](C(C)(C)O)NC(=O)[C@H](CC3CCCCC3)NC(=O)[C@H](CCN)NC(=O)[C@@H](CC(C)C)NC(=O)[C@H](CCCN)NC(=O)[C@H](Cc3ccc(C(=O)O)cc3)NC(=O)[C@H](Cc3ccc(-c4ccccc4)cc3)NC(=O)[C@H](Cc3ccc(C(=O)O)cc3)NC2=O)c1 [Compound 1252] ({CH2CO}-[Dab]Y(Carboxymethyl)D[Phe(3-Me)][Phe(4-COOH)][Bip][Phe(4-COOH)][Orn][dL][Dab][Cha][Val(3-OH)]HC[Dab][AEEA][AEEA]D(NH(CH2)14COOH)-OH; thioether N-14) | 41.5
9 | Cc1cccc(C[C@@H]2NC(=O)[C@H](CC(=O)O)NC(=O)[C@H](Cc3ccc(OCC(=O)O)cc3)NC(=O)[C@H](CCN)NC(=O)CSC[C@@H](C(=O)N[C@@H](CCN)C(=O)NCCOCCOCC(=O)NCCOCCOCC(=O)N[C@@H](CCC(=O)NCCCCCCCCCCCCCCC(=O)O)C(=O)O)NC(=O)[C@H](Cc3cnc[nH]3)NC(=O)[C@H](C(C)(C)O)NC(=O)[C@H](CC3CCCCC3)NC(=O)[C@H](CCN)NC(=O)[C@@H](CC(C)C)NC(=O)[C@H](CCCN)NC(=O)[C@H](Cc3ccc(C(=O)O)cc3)NC(=O)[C@H](Cc3ccc(-c4ccccc4)cc3)NC(=O)[C@H](Cc3ccc(C(=O)O)cc3)NC2=O)c1 [Compound 1253] ({CH2CO}-[Dab]Y(Carboxymethyl)D[Phe(3-Me)][Phe(4-COOH)][Bip][Phe(4-COOH)][Orn][dL][Dab][Cha][Val(3-OH)]HC[Dab][AEEA][AEEA]E(NH(CH2)14COOH)-OH; thioether N-14) | 31.1
10 | Cc1cccc(C[C@@H]2NC(=O)[C@H](CC(=O)O)NC(=O)[C@H](Cc3ccc(OCC(=O)O)cc3)NC(=O)[C@H](CCN)NC(=O)CSC[C@@H](C(=O)N[C@@H](CCN)C(=O)NCCOCCOCC(=O)NCCOCCOCC(=O)N[C@@H](CC(=O)NCCCCCCCCCCCCC(=O)O)C(=O)O)NC(=O)[C@H](Cc3cnc[nH]3)NC(=O)[C@H](C(C)(C)O)NC(=O)[C@H](CC3CCCCC3)NC(=O)[C@H](CCN)NC(=O)[C@@H](CC(C)C)NC(=O)[C@H](CCCN)NC(=O)[C@H](Cc3ccc(C(=O)O)cc3)NC(=O)[C@H](Cc3ccc(-c4ccccc4)cc3)NC(=O)[C@H](Cc3ccc(C(=O)O)cc3)NC2=O)c1 [Compound 1255] ({CH2CO}-[Dab]Y(Carboxymethyl)D[Phe(3-Me)][Phe(4-COOH)][Bip][Phe(4-COOH)][Orn][dL][Dab][Cha][Val(3-OH)]HC[Dab][AEEA][AEEA]D(NH(CH2)12COOH)-OH; thioether N-14) | 10.2
11 | Cc1cccc(C[C@@H]2NC(=O)[C@H](CC(=O)O)NC(=O)[C@H](Cc3ccc(OCC(=O)O)cc3)NC(=O)[C@H](CCN)NC(=O)CSC[C@@H](C(=O)N[C@@H](CCN)C(=O)NCCOCCOCC(=O)NCCOCCOCC(=O)N[C@@H](CCC(=O)NCC(=O)NCCCCCCCCCCCCC(=O)O)C(=O)O)NC(=O)[C@H](Cc3cnc[nH]3)NC(=O)[C@H](C(C)(C)O)NC(=O)[C@H](CC3CCCCC3)NC(=O)[C@H](CCN)NC(=O)[C@@H](CC(C)C)NC(=O)[C@H](CCCN)NC(=O)[C@H](Cc3ccc(C(=O)O)cc3)NC(=O)[C@H](Cc3ccc(-c4ccccc4)cc3)NC(=O)[C@H](Cc3ccc(C(=O)O)cc3)NC2=O)c1 [Compound 1256] ({CH2CO}-[Dab]Y(Carboxymethyl)D[Phe(3-Me)][Phe(4-COOH)][Bip][Phe(4-COOH)][Orn][dL][Dab][Cha][Val(3-OH)]HC[Dab][AEEA][AEEA][γGlu]G-{NH(CH2)12COOH}; thioether N-14) | 9.9
